How the values were obtained:
cyclooxygenase-1 = target: T1, cyclooxygenase-1 (Homo sapiens, UniProt P23219); assay: Inhibition of cyclooxygenase-1 in U-937 cells (PGE2 quantitation); assay type: cell-based; conditions: U-937 cells
T1 construct: The cultured U-937 (humane lymphoma cell, obtained from Korean cell line bank) was centrifuged to collect the pellet; endogenous in cells; host or cells: U-937 (human lymphoma cell line, Korean cell line bank)
Procedure: (§1) In order to investigate pharmacologically the selective inhibition activity against cyclooxygenase-2 enzyme, the inhibitive effects against cyclooxygenase-1 and cyclooxygenase-2 were measured by two methods as follows.
Then, the pellet was diluted with 1×HBSS(Hank's balanced salt solutin) at the concentration of 1×10^6 cells/ml, and 1 ml of them was transferred into each well of 12-well plates, and then dissolved with DMSO. 5μl of the diluted sample solution, and 5μl of DMSO vehicle were added therein and mixed, and the mixture was cultured at 37° C. in Co2 incubator for 15 minutes. Arachidonic acid as a substrate was dissolved in ethanol to prepare a stock solution with a concentration of 10 mM, followed by diluting with 1×HBSS to prepare the solution of 1 mM. 10 μl of 1 mM Arachidonic acid solution was added to each of the treated wells, and the mixture was cultured at 37° C. in CO2 incubator for 30 minutes. The cell solution of each well was collected in the centrifuge tube and was centrifuged at 4° C. for 5 minutes at 10,000 rpm. As PGE2 existed in the supernatant separated from collected cell, the concentration of PGE2 was quantitated by using monoclonal kit from Cayman Chemicals, and the concentration of samples and vehicle were compared to estimate the inhibition ratio (%) of each compound against cyclooxygenase-1. Ultimately, the inhibition effect against the cyclooxygenase-1 enzyme was obtained from the result.

cyclooxygenase-2 = target: T2, cyclooxygenase-2 (Mus musculus, UniProt Q05769); assay: Inhibition of cyclooxygenase-2 in Raw 264.7 cells treated with interferon γ and LPS (PGE2 EIA); assay type: cell-based; conditions: for Inhibitory effects of cyclooxygenase (COX): COX-2: Raw 264.7 cells; for selectivity of cyclooxygenase-2 compared with the comparative substance (in words): COX-2 versus COX-1
T2 construct: endogenous in cells; host or cells: Raw 264.7 (Korean cell line bank), aspirin-pretreated, induced with interferon gamma and LPS
T2 sequence (Q05769 18-604): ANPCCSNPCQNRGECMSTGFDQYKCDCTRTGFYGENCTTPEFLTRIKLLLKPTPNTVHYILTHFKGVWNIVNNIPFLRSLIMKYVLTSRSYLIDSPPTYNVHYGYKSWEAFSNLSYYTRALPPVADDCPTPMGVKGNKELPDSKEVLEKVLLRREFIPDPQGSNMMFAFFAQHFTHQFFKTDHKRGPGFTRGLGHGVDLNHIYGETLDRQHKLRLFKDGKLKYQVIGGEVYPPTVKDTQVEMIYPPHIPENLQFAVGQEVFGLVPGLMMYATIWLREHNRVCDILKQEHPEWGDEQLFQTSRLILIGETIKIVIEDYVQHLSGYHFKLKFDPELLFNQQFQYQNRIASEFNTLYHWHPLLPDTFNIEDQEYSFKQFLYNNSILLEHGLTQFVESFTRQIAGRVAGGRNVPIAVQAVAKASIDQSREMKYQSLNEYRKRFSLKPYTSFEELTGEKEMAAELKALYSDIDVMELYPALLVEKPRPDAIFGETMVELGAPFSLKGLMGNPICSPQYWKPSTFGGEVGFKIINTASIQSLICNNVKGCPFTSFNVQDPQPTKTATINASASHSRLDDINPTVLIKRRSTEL
Procedure: as §1
And then, each samples were replaced with new media and cultured for 30 minutes. In addition, the samples was treated with 100 units/ml of interferon Υ and 100 ng/ml of lipopolysaccharide(LPS), and cultured for 18 hours. Then, the media was transferred to other tubes and the PGE 2 was quantitated by using EIA kit from Cayman Chemicals.

T1 sequence (P23219 24-599): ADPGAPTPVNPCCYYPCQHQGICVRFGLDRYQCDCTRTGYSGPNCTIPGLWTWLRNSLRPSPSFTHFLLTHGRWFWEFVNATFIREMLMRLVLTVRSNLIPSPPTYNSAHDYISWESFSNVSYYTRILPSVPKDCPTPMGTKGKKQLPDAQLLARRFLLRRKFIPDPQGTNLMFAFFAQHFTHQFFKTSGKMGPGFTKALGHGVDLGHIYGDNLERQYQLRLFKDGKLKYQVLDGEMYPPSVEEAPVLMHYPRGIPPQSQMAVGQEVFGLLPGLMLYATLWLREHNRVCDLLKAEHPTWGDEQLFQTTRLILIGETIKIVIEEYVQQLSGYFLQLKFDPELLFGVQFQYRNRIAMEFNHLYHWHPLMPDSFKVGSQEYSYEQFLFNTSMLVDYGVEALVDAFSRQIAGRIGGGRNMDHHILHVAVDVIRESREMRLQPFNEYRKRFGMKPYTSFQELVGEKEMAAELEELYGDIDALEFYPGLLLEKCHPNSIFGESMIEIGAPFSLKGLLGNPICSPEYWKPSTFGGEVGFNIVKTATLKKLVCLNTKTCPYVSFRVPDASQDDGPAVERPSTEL

Compound | Inhibitory effects of cyclooxygenase (COX): COX-1 (cyclooxygenase-1; 3 μM) | Inhibitory effects of cyclooxygenase (COX): COX-1 (cyclooxygenase-1; 10 μM) | Inhibitory effects of cyclooxygenase (COX): COX-1 (cyclooxygenase-1; 30 μM) | Inhibitory effects of cyclooxygenase (COX): COX-2 (cyclooxygenase-2; 30 nM) | Inhibitory effects of cyclooxygenase (COX): COX-2 (cyclooxygenase-2; 100 nM) | Inhibitory effects of cyclooxygenase (COX): COX-2 (cyclooxygenase-2; 300 nM) | selectivity of cyclooxygenase-2 compared with the comparative substance (in words) (cyclooxygenase-2)
COc1ccc(-c2nc(C)nn2-c2ccc(S(N)(=O)=O)cc2)cc1 [Example 6, 4-[5-(4-methoxy-phenyl)-3-mehtyl-[1,2,4]triazole-1-yl]-benzenesulfonamide] | 78.6 % inhibition | 85.6 % inhibition | 94.5 % inhibition | 68.8 % inhibition | 99.2 % inhibition | 99.9 % inhibition | hardly different
Cc1nc(-c2cccc(Cl)c2)n(-c2ccc(S(N)(=O)=O)cn2)n1 [Example 21, 6-[5-(3-chloro-phenyl)-3-methyl-[1,2,4]triazole-1-yl]-pyridine-3-sulfonic acid amide] | 44.7 % inhibition | 56.7 % inhibition | 75.6 % inhibition | 43.9 % inhibition | 48.8 % inhibition | 67.8 % inhibition | 
Cc1nc(-c2cccc(F)c2)n(-c2ccc(S(N)(=O)=O)cc2)n1 [Example 7, 4-[5-(3-fluoro-phenyl)-3-methyl-[1,2,4]triazole-1-yl]-benzenesulfonamide] | 21.1 % inhibition | 24.4 % inhibition | 28.1 % inhibition | 54.3 % inhibition | 55.0 % inhibition | 55.3 % inhibition | 
Cc1nc(-c2ccc(F)cc2)n(-c2ccc(S(N)(=O)=O)cc2)n1 [Example 2, 4-[5-(4-fluoro-phenyl)-3-methyl-[1,2,4]triazole-1-yl]-benzenesulfonamide] | 36.9 % inhibition | 53.4 % inhibition | 67.8 % inhibition | 28.8 % inhibition | 34.4 % inhibition | 45.7 % inhibition | 
COc1ccc(-c2nc(C)nn2-c2ccc(S(N)(=O)=O)cn2)cc1 [Example 19, 6-[5-(4-methoxy-phenyl)-3-mehtyl-[1,2,4]triazole-1-yl]-pyridine-3-sulfonic acid amide] | 46.9 % inhibition | 61.0 % inhibition | 77.6 % inhibition | 34.8 % inhibition | 43.1 % inhibition | 69.5 % inhibition | 
Cc1nc(-c2ccc(Br)cc2)n(-c2ccc(S(C)(=O)=O)cn2)n1 [Example 31, 2-[5-(4-bromo-phenyl)-3-methyl-[1,2,4]triazole-1-yl]-5-methanesulfonyl-pyridine] | 81.4 % inhibition | 82.0 % inhibition | 88.1 % inhibition | 69.5 % inhibition | 99.8 % inhibition | 99.9 % inhibition | hardly different
Cc1nc(-c2ccc(F)cc2)n(-c2ccc(S(N)(=O)=O)cn2)n1 [Example 15, 6-[5-(4-fluoro-phenyl)-3-methyl-[1,2,4]triazole-1-yl]-pyridine-3-sulfonic acid amide] | 35.7 % inhibition | 41.0 % inhibition | 46.9 % inhibition | 27.1 % inhibition | 28.8 % inhibition | 38.9 % inhibition | 

Source: patent US7135572B2 (CJ Corp, priority 2001, dated 2006)
